Data reported in patent US8349870B2 (priority 2008, dated 2013).

How the values were obtained:
Type in all cases: in vivo
[1] = test system: Phytophthora infestans; settings: tomato late blight, sprayed 17 h after inoculation; "*" compound tested at 40 ppm
[2] = test system: Plasmopara viticola; assay: Test A: grape downy mildew, spray after inoculation, visual disease rating (% disease control); settings: "*" compound tested at 40 ppm, 100 = 100% disease control, 0 = no control
From the text: General protocol for preparing test suspensions for Test A-C: The test compounds were first dissolved in acetone in an amount equal to 3% of the final volume and then suspended at the desired concentration (in ppm) in acetone and purified water (50/50 mix by volume) containing 250 ppm of the surfactant Trem® 014 (polyhydric alcohol esters). The resulting test suspensions were then used in Tests A-C. Spraying a 200 ppm test suspension to the point of run-off on the test plants was equivalent to a rate of 500 g/ha.
Grape seedlings were inoculated with a spore suspension of Plasmopara viticola (the causal agent of grape downy mildew) and incubated in a saturated atmosphere at 20° C. for 24 h. After a short drying period, the test suspension was sprayed to the point of run-off on the grape seedlings, which were then moved to a growth chamber at 20° C. for 5 days, after which time the grape seedling were placed back into a saturated atmosphere at 20° C. for 24 h. Upon removal, visual disease ratings were made.
Results for Tests A-C are given in Table A. In the table, a rating of 100 indicates 100% disease control and a rating of 0 indicates no disease control (relative to the controls). A dash (-) indicates no test results, “*” indicates compound was tested at 40 ppm and “**” indicates compound was tested at 10 ppm.

[3] = test system: Phytophthora infestans; settings: tomato late blight, sprayed the day before inoculation; "*" compound tested at 40 ppm

| SMILES | Test C rating (% disease control) [1] | Test A rating (% disease control) [2] | Test B rating (% disease control) [3] |
| --- | --- | --- | --- |
| Cc1ccc(C)c(N=C(NO)N2CCC(c3nc(C4=NOC(c5c(F)cccc5F)C4)cs3)CC2)c1 (stereo not drawn) [compound 25] | 99% | 100% | 100% |
| CCOC(=O)CNC(=O)N1CCC(c2nc(C3=NOC(c4ccccc4)C3)cs2)CC1 (stereo not drawn) [compound 18] | 26% | 39% | 63% |
